The text below walks through data of patent US10006044B2, “Soybean event SYHT04R and compositions and methods for detection thereof” (Syngenta Participations AG, priority 2010, dated 2018).

The structures appear in SMILES notation.

What all share (format): in vivo, Glycine max
One test has as its system event SYHT04R. Kind of test: Herbicide tolerance performance of transgenic seeds and progeny plants. Particulars: from a population of about 90 transformants. From the text:
After plants became established in the soil and new growth appeared (˜1-2 weeks), plants were sampled and tested for the presence of desired transgene by TAQMAN® analysis using appropriate probes for the HPPD genes or promoters. Positive plants were transplanted into 4″ square pots containing Fafard #3 soil. Sierra 17-6-12 slow release fertilizer was incorporated into the soil at the recommended rate. The plants were then relocated into a standard greenhouse to acclimatize (˜1 week). The environmental conditions were: 27° C. day; 21° C. night; 14 hour photoperiod (with supplemental light); ambient humidity. After acclimatizing (˜1 week), the plants were sampled and tested in detail for the presence and copy number of inserted transgenes. Transgenic soybean plants were grown to maturity for T1 seed production. T1 plants were grown up, and after TAQMAN® analysis, homozygous plants were grown for seed production. Transgenic seeds and progeny plants were used to further evaluate their herbicide tolerance performance and molecular characteristics.

The test system of test [1] is non-transgenic soybean line Jack. Kind of test: Field efficacy: leaf injury after mesotrione treatment, control line. Particulars: 210 g ai/ha mesotrione at V2/V3 stage, % of leaves showing injury, 9 US locations. The procedure:
(§1) SYH[…] soybean plants were tested for efficacy against mesotrione in 9 locations in the United States. The non-transgenic soybean line Jack was used as a control. […]

For a further test, the system named is SYHT04R soybean plants. In words: Field efficacy: leaf injury after mesotrione treatment, event SYHT04R. Particulars: line SYHT04R; 210 g ai/ha mesotrione at V2/V3 stage; % of leaves showing injury; 9 US locations. Here is the method: as §1
Another test deals with Soybean event SYHT04R. In words: Yield of soybean event SYHT04R sprayed with mesotrione versus the event unsprayed. The conditions noted are these: for average yield advantage versus unsprayed: SYHT04R in several elite soybean genotypes, additional replicated trials. The procedure:
This observation has been made during multiple seasons of replicated agronomic and efficacy trials conducted on the STYHT04R event in the genotype ‘Jack.’ In a representative study, SYHT04R was tested in twenty Midwestern locations.

Turning to `CS(=O)(=O)c1ccc(C(=O)C2C(=O)CCCC2=O)c([N+](=O)[O-])c1` [mesotrione], the “mesotrione tolerance of the event” value with event SYHT04R is recorded as “high level of mesotrione tolerance”. Further, the “% Injury 5-11 DAT” value stood at 57% in test [1] and 19% in the test on SYHT04R soybean plants. Moreover, the “% Injury 14-21 DAT” value is 78% in test [1] and 10% in the test on SYHT04R soybean plants. For the same compound, the “% Injury 25-36 DAT” value in test [1] was determined as 72%; with SYHT04R soybean plants, 4%. For the same compound, the “greater yield than the unsprayed event” value in the test on Soybean event SYHT04R (2× application at early vegetative stage, separate study, ten locations) was found to be 1.4 bushels per acre; with Soybean event SYHT04R (2× application at early vegetative stage, twenty Midwestern locations, genotype Jack), 3.7 bushels per acre; with Soybean event SYHT04R (2× pre-emergence application, separate study, ten locations) it was 3.1 bushels per acre; in the test on Soybean event SYHT04R (2× pre-emergence application, twenty Midwestern locations, genotype Jack) it was 4.9 bushels per acre. For the same compound, the “average yield advantage versus unsprayed” value with Soybean event SYHT04R (early post-emergence application) was 0.6 bushels per acre; with Soybean event SYHT04R (pre-emergence application) it was 1.1 bushels per acre.
